In article PMC10056611, “Synthesis and Biological Evaluation of 3-Amino-4,4-Dimethyl Lithocholic Acid Derivatives as Novel, Selective, and Cellularly Active Allosteric SHP1 Activators” (Molecules, 2023):

Key:
SHP1 = SHP1 (Homo sapiens, UniProt P29350); experiment: SHP1 enzyme assay (DiFMUP fluorogenic substrate), activation; assay type: biochemical
Source text: The SHP1-activating effects of the synthetic compounds were examined by the 6,8-difluoro-4-methylumbelliferyl phosphate (DiFMUP) assay.
(§1) The proteins SHP1 and SHP2, containing a GST-tag, were expressed in E. coli. 6,8-Difluoro-4-methylumbelliferyl phosphate (DiFMUP) was used as the fluorogenic substrate. Fluorescence data were collected by the Envision (PerkinElmer, Waltham, MA, USA) plate reader, using excitation and emission wavelengths of 358 and 455 nm, respectively. A sigmoidal dose-response curve was fitted to the data, and the EC50 values were calculated using GraphPad Prism. In the data processing, the fitting and curves were calculated using nonlinear regression, and the fold value of the compound was calculated using the software GraphPad Prism 8. The folds were obtained according to the equation: Y = Bottom + (Top-Bottom)/(1 + 10^((LogEC50-X) × HillSlope)). The data represent mean values ± standard error of the mean (SEM) of eight-point experiments, each performed in triplicates from three independent experiments.

SHP2 = target: T1, SHP2 (Homo sapiens, UniProt Q06124); experiment: SHP2 enzyme assay (DiFMUP fluorogenic substrate), activation; assay type: biochemical
T1 sequence (Q06124 1-593): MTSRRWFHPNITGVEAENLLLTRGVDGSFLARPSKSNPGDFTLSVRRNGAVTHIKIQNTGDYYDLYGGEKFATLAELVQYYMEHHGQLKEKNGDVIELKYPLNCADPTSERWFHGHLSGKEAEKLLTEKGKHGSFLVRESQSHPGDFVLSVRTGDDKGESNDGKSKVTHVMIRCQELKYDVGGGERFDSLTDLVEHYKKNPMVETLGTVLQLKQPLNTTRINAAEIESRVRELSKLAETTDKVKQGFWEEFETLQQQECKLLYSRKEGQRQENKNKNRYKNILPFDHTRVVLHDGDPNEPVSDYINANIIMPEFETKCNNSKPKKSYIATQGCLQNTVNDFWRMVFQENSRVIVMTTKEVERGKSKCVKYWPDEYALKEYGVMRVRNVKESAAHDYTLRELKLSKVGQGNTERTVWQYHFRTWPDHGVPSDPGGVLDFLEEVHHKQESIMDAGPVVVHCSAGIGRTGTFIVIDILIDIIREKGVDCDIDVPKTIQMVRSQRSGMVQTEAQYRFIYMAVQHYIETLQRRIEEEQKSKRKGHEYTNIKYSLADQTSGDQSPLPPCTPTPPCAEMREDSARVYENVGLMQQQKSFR
Experimental: as §1

[1] = test system: acute lymphoblastic leukemia (ALL) cell line RS4;11; experiment: CCK8 cell viability assay, RS4;11; assay type: cell-based; settings: Homo sapiens, RS4-11, 72 h, RS4;11 cells
Experimental: (§2) Acute lymphoblastic leukemia (ALL) cell line RS4;11 (2.5 × 10^4 cells per well), acute promyelocytic leukemia (APL) cell line NB4 (1 × 10^4 cells per well), and non-small cell lung cancer (NSCLC) cell line NCI-H1299 (1.5 × 10^3 cells per well) were seeded into 96-well plates. After treatment with different concentrations of drugs, the cells were incubated in quadruple for 72 h. Thereafter, a 10 μL CCK8 solution was added to each well. After a 3 h incubation at 37 °C, the plates were read for absorbance at 450 nm and 650 nm using a SpectraMax Molecular Devices microplate reader. The final data were calibrated by OD450 nm-OD650 nm. The inhibition rates of proliferation were calculated with the following equation:Inhibition ratio = (ODDMSO-ODCompd)/(ODDMSO-ODblank) × 100%.(1)
(§3) The concentrations of the compounds that inhibited cell growth by 50% (IC50) were calculated using GraphPad Prism version 5.0. NVP-2 was used as a positive control.

[2] = test system: acute promyelocytic leukemia (APL) cell line NB4; experiment: CCK8 cell viability assay, NB4; assay type: cell-based; settings: Homo sapiens, NB-4, NB4 cells, 72 h
Experimental: as §2, §3

[3] = test system: non-small cell lung cancer (NSCLC) cell line NCI-H1299; experiment: CCK8 cell viability assay, NCI-H1299; assay type: cell-based; settings: Homo sapiens, NCI-H1299 cells, 72 h
Experimental: as §2, §3

Chain of SHP1 (P29350 whole entry): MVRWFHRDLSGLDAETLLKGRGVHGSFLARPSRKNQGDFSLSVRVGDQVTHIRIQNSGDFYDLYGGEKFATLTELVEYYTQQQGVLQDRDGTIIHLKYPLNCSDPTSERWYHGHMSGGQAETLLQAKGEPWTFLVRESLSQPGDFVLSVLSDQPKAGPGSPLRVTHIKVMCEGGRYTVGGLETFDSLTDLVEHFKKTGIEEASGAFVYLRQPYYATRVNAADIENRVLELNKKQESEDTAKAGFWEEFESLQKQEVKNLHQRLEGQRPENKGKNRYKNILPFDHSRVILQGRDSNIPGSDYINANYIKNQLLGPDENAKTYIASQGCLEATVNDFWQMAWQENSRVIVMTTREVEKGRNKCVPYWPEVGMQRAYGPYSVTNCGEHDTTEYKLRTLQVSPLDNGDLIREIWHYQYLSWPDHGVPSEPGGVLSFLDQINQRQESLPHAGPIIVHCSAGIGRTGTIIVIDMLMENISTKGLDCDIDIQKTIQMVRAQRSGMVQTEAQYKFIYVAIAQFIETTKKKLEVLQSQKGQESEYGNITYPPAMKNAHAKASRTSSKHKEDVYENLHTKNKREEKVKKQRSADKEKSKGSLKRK

In the case of C[C@H](COc1ccc(NC(=O)Nc2ccc(Cl)c(C(F)(F)F)c2)cc1)[C@H]1CCC2C3CC=C4C(C)(C)C(N)CC[C@]4(C)C3CC[C@@]21C (stereo partly drawn) [Compound 5ba], the EC50 (SHP1; DiFMUP assay, mean ± SEM) is reported as 1.54 ± 0.24 µM, the “Maximum Activation Fold” value (SHP1; DiFMUP assay, mean ± SEM) is reported as 7.63 ± 0.20 fold and the “increase in potency compared to 5aw” value (SHP1; SHP1 EC50 ratio vs 5aw) is reported as about 23 times. The EC50 (SHP2; DiFMUP assay) was over 50 µM, the “selectivity for SHP1 over SHP2” value (SHP2; ratio of EC50 values, SHP2 vs SHP1) was “more than 32 fold” and the IC50 [1] was 4 ± 0.22 µM. The IC50 [2] was 3.74 ± 0.39 µM, the IC50 [3] was 5.51 ± 0.23 µM and the melting point was 197.1 to 198.6 °C.
